According to patent publication US9624209B2, “Substituted phenylureas and phenylamides as vanilloid receptor ligands” (Gruenenthal GmbH, priority 2009, dated 2017):

Molecular target: T1, vanilloid receptor 1 (VR1/TRPV1 receptor) (Homo sapiens, UniProt Q8NER1)
T1 construct: expressed in transfected cells; host or cells: CHO K1 cells (ECACC), stably transfected
Experiment: VR1/TRPV1 receptor affinity, capsaicin stimulus (human)
Assay type: cell-based, human being
Settings: for Ki: Tables 8-12, read-out: (f) Ki (human being) [nM] Cap; for inhibition at 5 µM: Tables 8-12, read-out: (f) Ki (human being) [nM] Cap: inhibition (as a percentage)

T1 sequence (Q8NER1 whole entry): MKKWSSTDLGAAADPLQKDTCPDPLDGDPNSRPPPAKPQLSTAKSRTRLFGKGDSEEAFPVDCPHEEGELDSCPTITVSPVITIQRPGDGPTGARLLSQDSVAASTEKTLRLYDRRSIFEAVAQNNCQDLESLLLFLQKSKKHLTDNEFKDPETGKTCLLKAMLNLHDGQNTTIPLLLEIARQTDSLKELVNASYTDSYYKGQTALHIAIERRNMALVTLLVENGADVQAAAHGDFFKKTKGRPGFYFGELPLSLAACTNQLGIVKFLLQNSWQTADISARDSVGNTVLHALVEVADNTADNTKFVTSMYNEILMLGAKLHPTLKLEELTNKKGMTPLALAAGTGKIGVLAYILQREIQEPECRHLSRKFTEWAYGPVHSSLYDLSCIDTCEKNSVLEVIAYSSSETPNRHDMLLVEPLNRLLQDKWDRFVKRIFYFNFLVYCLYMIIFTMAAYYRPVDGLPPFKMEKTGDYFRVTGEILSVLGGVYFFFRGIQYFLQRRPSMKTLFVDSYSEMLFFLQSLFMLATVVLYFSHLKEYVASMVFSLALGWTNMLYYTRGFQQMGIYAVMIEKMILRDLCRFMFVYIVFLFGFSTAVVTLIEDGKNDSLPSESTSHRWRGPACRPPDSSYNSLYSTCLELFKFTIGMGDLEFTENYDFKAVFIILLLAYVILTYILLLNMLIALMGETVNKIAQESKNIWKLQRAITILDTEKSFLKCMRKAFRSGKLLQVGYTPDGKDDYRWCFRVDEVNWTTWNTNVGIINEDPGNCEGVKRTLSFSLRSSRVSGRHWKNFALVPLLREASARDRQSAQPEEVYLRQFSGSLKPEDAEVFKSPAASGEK

Compound | Ki [nM] | inhibition at 5 µM [%]
CC(C)c1cccc(-n2nc(C(F)(F)F)cc2CNC(=O)Nc2ccc(CNS(N)(=O)=O)cc2)c1 [Example B79, 1-[[2-(3-Isopropyl-phenyl)-5-(trifluoromethyl)-2H-pyrazol-3-yl]-methyl]-3-[4-[(sulfamoylamino)-methyl]-phenyl]-urea] | 2 | –
CC(C)c1cccc(-n2nc(C(F)(F)F)cc2CNC(=O)Nc2ccc(CNS(N)(=O)=O)c(F)c2)c1 [Example B80, 1-[3-Fluoro-4-[(sulfamoylamino)-methyl]-phenyl]-3-[[2-(3-isopropyl-phenyl)-5-(trifluoromethyl)-2H-pyrazol-3-yl]-methyl]-urea] | 2 | –
CC(C)c1cccc(-n2nc(C(F)(F)F)cc2CNC(=O)C(C)c2ccc(CNS(C)(=O)=O)c(F)c2)c1 (stereo not shown) [Example B82, 2-[3-Fluoro-4-(methanesulfonamido-methyl)-phenyl]-N-[[2-(3-isopropyl-phenyl)-5-(trifluoromethyl)-2H-pyrazol-3-yl]-methyl]-propionamide] | 0.8 | –
CC(C)c1cccc(-n2nc(C(F)(F)F)cc2CNC(=O)Nc2ccc(CNS(C)(=O)=O)cc2)c1 [Example B83, 1-[[2-(3-isopropyl-phenyl)-5-(trifluoromethyl)-2H-pyrazol-3-yl]-methyl]-3-[4-(methanesulfonamido-methyl)-phenyl]-urea] | 3 | –
CCS(=O)(=O)NCc1ccc(NC(=O)NCc2cc(C(C)(C)C)nn2-c2cccc(Cl)c2)cc1 [Example B85, 1-[[5-tert-Butyl-2-(3-chlorophenyl)-2H-pyrazol-3-yl]-methyl]-3-[4-[[(ethylsulfonyl)amino]-methyl]-phenyl]-urea] | 16 | –
COc1cc(NC(=O)NCc2cc(C(F)(F)F)nn2-c2cccc(C)c2)ccc1CNS(C)(=O)=O [Example B86, 1-[4-(Methanesulfonamido-methyl)-3-methoxy-phenyl]-3-[[2-(m-tolyl)-5-(trifluoromethyl)-2H-pyrazol-3-yl]-methyl]-urea] | 93 | –
Cc1cccc(-n2nc(C(F)(F)F)cc2CNC(=O)Nc2ccc(CNS(C)(=O)=O)c(F)c2)c1 [Example B87, 1-[3-Fluoro-4-(methanesulfonamido-methyl)-phenyl]-3-[[2-(m-tolyl)-5-(trifluoromethyl)-2H-pyrazol-3-yl]-methyl]-urea] | 15 | –
Cc1cccc(-n2nc(C(C)(C)C)cc2CNC(=O)C(C)c2ccc(CNS(C)(=O)=O)c(F)c2)c1 (stereo not shown) [Example B88, N-[[5-tert-Butyl-2-(m-tolyl)-2H-pyrazol-3-yl]-methyl]-2-[3-fluoro-4-(methanesulfonamido-methyl)-phenyl]-propionamide] | 29 | –
Cc1cccc(-n2nc(C(C)(C)C)cc2CNC(=O)Nc2ccc(CNS(C)(=O)=O)cc2)c1 [Example B90, 1-[[5-tert-Butyl-2-(m-tolyl)-2H-pyrazol-3-yl]-methyl]-3-[4-(methanesulfonamido-methyl)-phenyl]-urea] | 12 | –
CCS(=O)(=O)NCc1ccc(NC(=O)NCc2cc(C(C)(C)C)nn2-c2cccc(C)c2)cc1 [Example B92, 1-[[5-tert-Butyl-2-(m-tolyl)-2H-pyrazol-3-yl]-methyl]-3-[4-[[(ethylsulfonyl)amino]-methyl]-phenyl]-urea] | 67 | –
CC(C(=O)NCc1cc(C(C)(C)C)nn1-c1cccc(Cl)c1)c1ccc(CNS(N)(=O)=O)c(F)c1 (stereo not shown) [Example B93, N-[[5-tert-Butyl-2-(3-chlorophenyl)-2H-pyrazol-3-yl]-methyl]-2-[3-fluoro-4-[(sulfamoylamino)-methyl]-phenyl]-propionamide] | 4 | –
CC(C)c1cccc(-n2nc(C(F)(F)F)cc2CNC(=O)C(C)c2ccc(CNS(N)(=O)=O)c(F)c2)c1 (stereo not shown) [Example B94, 2-[3-Fluoro-4-[(sulfamoylamino)-methyl]-phenyl]-N-[[2-(3-isopropyl-phenyl)-5-(trifluoromethyl)-2H-pyrazol-3-yl]-methyl]-propionamide] | 0.9 | –
CC(C(=O)NCc1cc(C2CC2)nn1-c1cccc(Cl)c1)c1ccc(CNS(N)(=O)=O)c(F)c1 (stereo not shown) [Example B95, N-[[2-(3-Chlorophenyl)-5-cyclopropyl-2H-pyrazol-3-yl]-methyl]-2-[3-fluoro-4-[(sulfamoylamino)-methyl]-phenyl]-propionamide] | 22 | –
CC(C(=O)NCc1cc(C(C)(C)C)nn1-c1ccc(F)c(Cl)c1)c1ccc(CNS(N)(=O)=O)c(F)c1 (stereo not shown) [Example B96, N-[[5-tert-Butyl-2-(3-chloro-4-fluoro-phenyl)-2H-pyrazol-3-yl]-methyl]-2-[3-fluoro-4-[(sulfamoylamino)-methyl]-phenyl]-propionamide] | 0.9 | –
CC(C(=O)NCc1cc(C(F)(F)F)nn1-c1cccc(Cl)c1)c1ccc(CNS(N)(=O)=O)c(F)c1 (stereo not shown) [Example B97, N-[[2-(3-Chlorophenyl)-5-(trifluoromethyl)-2H-pyrazol-3-yl]-methyl]-2-[3-fluoro-4-[(sulfamoylamino)-methyl]-phenyl]-propionamide] | 1 | –
COc1cc(C(C)C(=O)NCc2cc(C(C)(C)C)nn2-c2cccc(Cl)c2)ccc1CNS(C)(=O)=O (stereo not shown) [Example B98, N-[[5-tert-Butyl-2-(3-chlorophenyl)-2H-pyrazol-3-yl]-methyl]-2-[4-(methanesulfonamido-methyl)-3-methoxy-phenyl]-propionamide] | 3 | –
CC(C(=O)NCc1cc(C(F)(F)F)nn1-c1cccc(Cl)c1)c1ccc(CNS(N)(=O)=O)cc1 (stereo not shown) [Example B102, N-[[2-(3-Chlorophenyl)-5-(trifluoromethyl)-2H-pyrazol-3-yl]-methyl]-2-[4-[(sulfamoylamino)-methyl]-phenyl]-propionamide] | 1 | –
CC(C(=O)NCc1cc(C(C)(C)C)nn1-c1cccc(Cl)c1)c1ccc(CNS(N)(=O)=O)cc1 (stereo not shown) [Example B103, N-[[5-tert-Butyl-2-(3-chlorophenyl)-2H-pyrazol-3-yl]-methyl]-2-[4-[(sulfamoylamino)-methyl]-phenyl]-propionamide] | 0.7 | –
CC(C(=O)NCc1cc(C(F)(F)F)nn1-c1cccc(Cl)c1)c1ccc(N2CCCS2(=O)=O)c(F)c1 (stereo not shown) [Example C1, N-[[2-(3-Chlorophenyl)-5-(trifluoromethyl)-2H-pyrazol-3-yl]-methyl]-2-[4-(1,1-dioxo-[1,2]thiazolidin-2-yl)-3-fluoro-phenyl]-propionamide] | 49 | –
CC(C(=O)NCc1cc(C(C)(C)C)nn1-c1ccc(F)c(Cl)c1)c1ccc(N2CCCS2(=O)=O)c(F)c1 (stereo not shown) [Example C2, N-[[5-tert-Butyl-2-(3-chloro-4-fluoro-phenyl)-2H-pyrazol-3-yl]-methyl]-2-[4-(1,1-dioxo-[1,2]thiazolidin-2-yl)-3-fluoro-phenyl]-propionamid] | 50 | –
CC(C(=O)NCc1cc(C(F)(F)F)nn1-c1ccc(F)c(F)c1)c1ccc(N2CCCS2(=O)=O)c(F)c1 (stereo not shown) [Example C3, N-[[2-(3,4-Difluoro-phenyl)-5-(trifluoromethyl)-2H-pyrazol-3-yl]-methyl]-2-[4-(1,1-dioxo-[1,2]thiazolidin-2-yl)-3-fluoro-phenyl]-propionamide] | – | 54

Now from value to compound:

Ki [nM] | inhibition at 5 µM [%] | Compound
33 | – | CS(=O)(=O)NCc1ccc(NC(=O)NCc2cc(C(F)(F)F)nn2-c2cccc(Cl)c2)cc1 [Example B81, 1-[[2-(3-Chlorophenyl)-5-(trifluoromethyl)-2H-pyrazol-3-yl]-methyl]-3-[4-(methanesulfonamido-methyl)-phenyl]-urea]
53 | – | CCS(=O)(=O)NCc1ccc(NC(=O)NCc2cc(C(F)(F)F)nn2-c2cccc(Cl)c2)cc1 [Example B84, 1-[[2-(3-Chlorophenyl)-5-(trifluoromethyl)-2H-pyrazol-3-yl]-methyl]-3-[4-[[(ethylsulfonyl)amino]-methyl]-phenyl]-urea]
24 | – | Cc1cccc(-n2nc(C(F)(F)F)cc2CNC(=O)Nc2ccc(CNS(C)(=O)=O)cc2)c1 [Example B89, 1-[4-(Methanesulfonamido-methyl)-phenyl]-3-[[2-(m-tolyl)-5-(trifluoromethyl)-2H-pyrazol-3-yl]-methyl]-urea]
57 | – | CCS(=O)(=O)NCc1ccc(NC(=O)NCc2cc(C(F)(F)F)nn2-c2cccc(C)c2)cc1 [Example B91, 1-[4-[[(Ethylsulfonyl)amino]-methyl]-phenyl]-3-[[2-(m-tolyl)-5-(trifluoromethyl)-2H-pyrazol-3-yl]-methyl]-urea]
– | 43 | O=C(NCc1cc(C(F)(F)F)nn1-c1cccc(Cl)c1)Nc1ccc(CN2CCCC2)cc1 [Example B99, 1-[[2-(3-Chlorophenyl)-5-(trifluoromethyl)-2H-pyrazol-3-yl]-methyl]-3-[4-(pyrrolidin-1-yl-methyl)-phenyl]-urea]
– | 17 | O=C(NCc1cc(C(F)(F)F)nn1-c1cccc(Cl)c1)Nc1ccc(CN2CCCCC2)c(F)c1 [Example B100, 1-[[2-(3-Chlorophenyl)-5-(trifluoromethyl)-2H-pyrazol-3-yl]-methyl]-3-[3-fluoro-4-(piperidin-1-yl-methyl)-phenyl]-urea]
– | 43 | CC(C)(C)c1cc(CNC(=O)Nc2ccc(CN3CCCC3)c(F)c2)n(-c2cccc(Cl)c2)n1 [Example B101, 1-[[5-tert-Butyl-2-(3-chlorophenyl)-2H-pyrazol-3-yl]-methyl]-3-[3-fluoro-4-(pyrrolidin-1-yl-methyl)-phenyl]-urea]
– | 13 | O=C(NCc1cc(C(F)(F)F)nn1-c1cccc(F)c1)Nc1ccc(N2CCCC2)c(F)c1 [Example C4, 1-[[2-(3-Fluorophenyl)-5-(trifluoromethyl)-2H-pyrazol-3-yl]-methyl]-3-(3-fluoro-4-pyrrolidin-1-yl-phenyl)-urea]
44 | – | O=C(NCc1cc(C(F)(F)F)nn1-c1cccc(Cl)c1)Nc1ccc(N2CCOCC2)c(F)c1 [Example C5, 1-[[2-(3-Chlorophenyl)-5-(trifluoromethyl)-2H-pyrazol-3-yl]-methyl]-3-(3-fluoro-4-morpholin-4-yl-phenyl)-urea]
43 | – | O=C(NCc1cc(C(F)(F)F)nn1-c1cccc(Cl)c1)Nc1ccc(N2CC(O)C2)c(F)c1 [Example C6, 1-[[2-(3-Chlorophenyl)-5-(trifluoromethyl)-2H-pyrazol-3-yl]-methyl]-3-[3-fluoro-4-(3-hydroxy-azetidin-1-yl)-phenyl]-urea]
